# The supplement of paper PMC10307832
# Experiments:
# Experiment in all cases: relative viability (nuclei count vs DMSO), 5 days (fraction); higher = more cells survive
# Olaparib + Lapatinib = compound: O=C(c1cc(Cc2n[nH]c(=O)c3ccccc23)ccc1F)N1CCN(C(=O)C2CC2)CC1 [Olaparib] + CS(=O)(=O)CCNCc1ccc(-c2ccc3ncnc(Nc4ccc(OCc5cccc(F)c5)c(Cl)c4)c3c2)o1 [Lapatinib] (partner 2 µM)
# How it was run: (§1)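 Lung cancer cell lines were seeded in 1536-well plates and dosed by pin tool the next day, with either a single drug or a fixed anchor-drug dose combined with five library-drug doses (not always all listed) spaced in √10 steps. Five days later, one step fixed the cells and stained their nuclei (final 0.05% Triton X-100, 1% formaldehyde, 1 ug/ml Hoechst), and nuclei were counted on 4× images. Relative viability is the nuclei count in treated wells divided by the count in vehicle wells, and each value is the median of duplicate plates.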
# Crizotinib + Foretinib = compound: C[C@@H](Oc1cc(-c2cnn(C3CCNCC3)c2)cnc1N)c1c(Cl)ccc(F)c1Cl [Crizotinib] + COc1cc2c(Oc3ccc(NC(=O)C4(C(=O)Nc5ccc(F)cc5)CC4)cc3F)ccnc2cc1OCCCN1CCOCC1 [Foretinib] (partner 0.25 µM)
# How it was run: as §1
# Crizotinib + Pemetrexed = compound: C[C@@H](Oc1cc(-c2cnn(C3CCNCC3)c2)cnc1N)c1c(Cl)ccc(F)c1Cl [Crizotinib] + Nc1nc2[nH]cc(CCc3ccc(C(=O)N[C@@H](CCC(=O)O)C(=O)O)cc3)c2c(=O)[nH]1 [Pemetrexed] (partner 0.2 µM)
# How it was run: as §1
# Olaparib + Linsitinib = compound: O=C(c1cc(Cc2n[nH]c(=O)c3ccccc23)ccc1F)N1CCN(C(=O)C2CC2)CC1 [Olaparib] + C[C@]1(O)C[C@@H](c2nc(-c3ccc4ccc(-c5ccccc5)nc4c3)c3c(N)nccn32)C1 [Linsitinib] (partner 1 µM)
# How it was run: as §1
Cell Line,relative viability (Olaparib + Lapatinib; first compound 0.08 µM),relative viability (Olaparib + Lapatinib; first compound 0.253 µM),relative viability (Olaparib + Lapatinib; first compound 2.53 µM),relative viability (Olaparib + Lapatinib; first compound 8 µM),relative viability (Crizotinib + Foretinib; first compound 0.01 µM),relative viability (Crizotinib + Foretinib; first compound 0.03162 µM),relative viability (Crizotinib + Foretinib; first compound 0.1 µM),relative viability (Crizotinib + Foretinib; first compound 0.3162 µM),relative viability (Crizotinib + Foretinib; first compound 1 µM),relative viability (Crizotinib + Pemetrexed; first compound 0.01 µM),relative viability (Crizotinib + Pemetrexed; first compound 0.03162 µM),relative viability (Crizotinib + Pemetrexed; first compound 0.1 µM),relative viability (Crizotinib + Pemetrexed; first compound 0.3162 µM),relative viability (Crizotinib + Pemetrexed; first compound 1 µM),relative viability (Olaparib + Linsitinib; first compound 0.08 µM),relative viability (Olaparib + Linsitinib; first compound 0.253 µM),relative viability (Olaparib + Linsitinib; first compound 2.53 µM),relative viability (Olaparib + Linsitinib; first compound 8 µM)
NCI-H1975,0.999,0.844,0.808,0.786,0.941,1.03,0.902,0.962,0.975,0.296,0.3,0.287,0.301,0.291,1.02,0.95,0.9,0.895
NCI-H2347,0.972,0.949,0.957,0.767,0.689,0.918,1.03,0.656,1.06,0.387,0.441,0.446,0.457,0.416,1.03,0.879,0.823,0.816
PC-14,0.368,0.319,0.298,0.307,0.894,1.01,,0.926,0.999,0.124,0.127,0.134,0.143,0.132,1.02,0.856,0.859,0.815
COR-L23,1.26,0.815,0.739,0.438,0.862,1,0.89,1.06,1.07,0.19,0.189,0.201,0.207,0.199,1.09,0.852,0.716,0.432
LK-2,0.985,0.935,0.92,0.941,1.19,1.42,1.2,,1.27,0.276,0.188,0.246,0.166,0.236,0.588,0.691,0.549,0.485
NCI-H358,0.388,0.434,0.44,0.426,0.609,0.835,0.649,0.624,0.713,0.174,0.168,0.172,0.18,0.173,0.842,0.608,0.668,0.592
NCI-H520,1.08,0.795,0.725,0.525,0.757,0.827,0.804,,0.538,0.564,0.626,0.644,0.789,0.756,1.17,0.825,0.872,0.663
NCI-H838,0.94,0.857,0.887,1.09,0.961,1.04,1.01,0.994,1.02,0.214,0.237,0.253,0.265,0.24,1.05,0.928,0.971,0.933
NCI-H2126,0.845,0.766,0.759,0.784,1.03,1.18,1.12,1.1,1.18,0.616,,0.68,0.659,0.724,0.808,0.641,0.698,0.7
HCC-366,1.06,0.884,0.77,0.417,0.913,0.841,0.893,,0.95,0.166,0.154,0.167,,0.202,0.67,0.479,0.447,0.303
NCI-H2085,0.968,0.711,0.737,0.618,0.822,0.809,0.906,,0.987,0.808,0.978,0.856,0.749,0.904,0.982,0.868,0.819,0.677
LU99A,1.01,0.839,0.643,0.49,0.74,0.781,0.812,0.788,0.766,0.165,0.167,0.173,0.142,0.173,0.587,0.515,0.414,0.333
NCI-H1944,0.781,0.663,0.668,0.627,0.823,0.877,0.847,0.884,0.862,0.499,0.614,0.621,0.605,0.652,1.22,1.05,1.12,0.876
NCI-H3122,1.02,0.934,0.936,0.946,0.94,0.925,0.978,0.873,0.924,0.192,0.196,0.195,0.182,0.192,0.95,1.04,0.954,0.899
LCLC-97TM1,1.21,0.947,0.565,0.438,0.83,,,0.959,0.801,0.201,0.16,0.166,0.17,0.192,0.166,0.178,0.162,0.18
LXF-289,0.929,0.871,0.97,0.973,0.864,1,1.01,0.914,0.954,0.807,0.939,0.788,0.736,,1.05,0.899,1.02,0.968
HCC-78,0.853,0.522,1.01,0.666,,0.685,0.566,0.592,0.599,0.88,0.865,0.889,0.855,,0.732,0.456,0.533,0.473
NCI-H2405,1.41,1.06,0.924,0.972,1.02,1.06,1.05,1.09,1.06,0.875,1.09,1.04,0.993,,1.15,0.93,0.915,0.851
